Assay results as given in patent publication US4871744A, “Certain 2,3-dihydro-indole-1-carboxamido-N-[8-azabicyclo(3.2.1)octan-3-yl]d e” (priority 1988, dated 1989).
Counter-ions that a name gives are not always drawn.

Test system: von Bezold-Jarisch reflex evoked by 5-HT
Experiment: Antagonism of the von Bezold-Jarisch reflex evoked by 5-HT in the anaesthetised rat
Type: in vivo
Settings: urethane-anaesthetised male rats, 5-HT-evoked changes in heart rate, 5-HT usually 6 μg/kg i.v.; for ED50: Rattus norvegicus, iv, read-out: ED50 (concentration required to reduce the 5HT-evoked response to 50% of the control response)
Experimental: Antagonism of the von Bezold-Jarisch reflex
The compounds were evaluated for antagonism of the von Bezold-Jarisch reflex evoked by 5-HT in the anaesthetised rat according to the following method:
Pharmacol. 2, 229-245 (1980). A submaximal dose of 5-HT (usually 6 μg/kg) was given repeatedly by the intravenous route and changes in heart rate quantified. Compounds were given intravenously and the concentration required to reduce the 5HT-evoked response to 50% of the control response (ED50) was then determined.

SMILES | ED50 [µg/kg] | ED50 (concentration required to reduce the 5HT-evoked response to 50% of the control response) (i.v.) [µg/kg]
CCc1cn(C(=O)N[C@H]2C[C@H]3CC[C@@H](C2)N3C)c2ccccc12 [Example 15, endo-N-(8-Methyl-8-azabicyclo[3.2.1]-oct-3-yl)-3-ethylindole-1-carboxamide hydrochloride] | 2 | –
CN1[C@@H]2CC[C@H]1C[C@@H](NC(=O)n1ccc3ccccc31)C2 [Example 11, endo-N-(8-Methyl-8-azabicyclo[3.2.1]oct-3-yl)indole-1-carboxamide hydrochloride] | 7.7 | –
O=C(OC1CN2CCC1CC2)N1CCc2ccccc21 (stereo not shown) [Example 13, N-(1-Azabicyclo[2.2.2]oct-3-yl)-2,3-dihydroindole-1-carboxylic acid ester] | – | 3.9
Cc1cn(C(=O)N[C@H]2C[C@H]3CC[C@@H](C2)N3C)c2ccccc12 [Example 6, endo-N-(8-Methyl-8-azabicyclo[3.2.1]oct-3-yl)-3-methylindole-1-carboxamide hydrochloride] | 1.6 | –
CC1Cc2ccccc2N1C(=O)N[C@H]1C[C@H]2CC[C@@H](C1)N2C (stereo partly drawn) [Example 19, (endo)-N-(8-Methyl-8-azabicyclo[3.2.1]oct-3-yl)-2,3-dihydro-2-methylindole-1-carboxamide hydrochloride] | 0.79 | –
CN1[C@@H]2CC[C@H]1C[C@@H](NC(=O)N1CC(C)(C)c3ccccc31)C2 [Example 5, endo-N-(8-Methyl-8-azabicyclo[3.2.1]oct-3-yl)-2,3-dihydro-3,3-dimethylindole-1-carboxamide] | 0.58 | –
CC(C)C1CN(C(=O)N[C@H]2C[C@H]3CC[C@@H](C2)N3C)c2ccccc21 (stereo partly drawn) [Example 22, (endo)-N-(8-Methyl-8-azabicyclo[3.2.1]oct-3-yl)-2,3-dihydro-3-isopropylindole-1-carboxamide hydrochloride] | 0.56 | –
CC1N(C(=O)N[C@H]2C[C@H]3CC[C@@H](C2)N3C)c2ccccc2C1(C)C (stereo partly drawn) [Example 21, (endo)-N-(8-Methyl-8-azabicyclo[3.2.1]oct-3-yl)-2,3-dihydro-2,3,3-trimethylindole-1-carboxamide hydrochloride] | 1.4 | –
CN1[C@@H]2CC[C@H]1C[C@@H](NC(=O)N1CCc3cc(Cl)ccc31)C2 [Example 9, endo-N-(8-Methyl-8-azabicyclo[3.2.1]oct-3-yl)-2,3-dihydro-5-chloroindole-1-carboxamide] | > 10 | –
CN1[C@@H]2CCC[C@H]1C[C@@H](NC(=O)N1CCc3ccccc31)C2 [Example 1, endo-N-(9-Methyl-9-azabicyclo[3.3.1]non-3-yl)-2,3-dihydroindole-1-carboxamide] | 12.5 | –
COc1ccc2c(c1)CCN2C(=O)N[C@H]1C[C@H]2CC[C@@H](C1)N2C [Example 10, endo-N-(8-Methyl-8-azabicyclo[3.2.1]oct-3-yl)2,3-dihydro-5-methoxyindole-1-carboxamide] | 7 | –
CN1[C@@H]2CC[C@H]1C[C@@H](NC(=O)N1CCc3cc(F)ccc31)C2 [Example 8, endo-N-(8-Methyl-8-azabicyclo[3.2.1]oct-3-yl)-5-fluoro-2,3-dihydroindole-1-carboxamide hydrochloride] | 17 | –
CN1[C@@H]2CC[C@H]1C[C@@H](NC(=O)N1CCc3ccc([N+](=O)[O-])cc31)C2 [Example 17, endo-N-(8-Methyl-8-azabicyclo[3.2.1]oct-3-yl)-2,3-dihydro-6-nitroindole-1-carboxamide hydrochloride] | > 10 | –
CC1CN(C(=O)N[C@H]2C[C@H]3CC[C@@H](C2)N3C)c2ccccc21 (stereo partly drawn) [Example 4, endo-N-(8-Methyl-8-azabicyclo[3.2.1]oct-3-yl)-2,3-dihydro-3-methylindole-1-carboxamide hydrochloride] | 3 | –
CN1[C@@H]2CC[C@H]1C[C@@H](NC(=O)N1CCc3ccccc31)C2 [Example 2, endo-N-(8-Methyl-8-azabicyclo[3.2.1]oct-3-yl)-2,3-dihydroindole-1-carboxamide] | 1.4 | –
CN1[C@@H]2CC[C@H]1C[C@@H](NC(=O)N1CCc3cc([N+](=O)[O-])ccc31)C2 [Example 16, endo-N-(8-Methyl-8-azabicyclo[3.2.1]oct-3-yl)-2,3-dihydro-5-nitroindole-1-carboxamide] | > 10 | –
CC1c2ccccc2N(C(=O)N[C@H]2C[C@H]3CC[C@@H](C2)N3C)C1C (stereo partly drawn) [Example 20, (endo)-N-(8-Methyl-8-azabicyclo[3.2.1]oct-3-yl)-2,3-dihydro-2,3-dimethylindole-1-carboxamide] | 0.53 | –
CN1[C@@H]2CC[C@H]1C[C@@H](OC(=O)N1CCc3ccccc31)C2 [Example 3, endo(8-Methyl-8-azabicyclo[3.2.1]oct-3-yl)-2,3-dihydroindole carboxylic acid ester] | 5 | –
CCC1CN(C(=O)N[C@H]2C[C@H]3CC[C@@H](C2)N3C)c2ccccc21 (stereo partly drawn) [Example 14, endo-N-(8-Methyl-8-azabicyclo[3.2.1]oct-3-yl)-2,3-dihydro-3-ethylindole-1-carboxamide hydrochloride] | 1 | –
Cl.O=C(NC1CN2CCC1CC2)N1CCc2ccccc21 (stereo not shown) [Example 12, N-(1-Azabicyclo[2.2.2]oct-3-yl)2,3-dihydroindole-1-carboxamide hydrochloride] | 4.4 | –
CC1(C)CN(C(=O)NC2CN3CCC2CC3)c2ccccc21 (stereo not shown) [Example 18, N-(1-Azabicyclo[2.2.2]oct-3-yl)2,3-dihydro-3,3-dimethylindole-1-carboxamidehydrochloride] | 5.3 | –
CCN1[C@@H]2CC[C@H]1C[C@@H](NC(=O)N1CCc3ccccc31)C2 [Example 7, endo-N-(8-Ethyl-8-azabicyclo[3.2.1]oct-3-yl)-2,3-dihydroindole-1-carboxamide] | > 10 | –
